Legend:
[1] = molecular target: T1, Alpha-1D adrenergic receptor (Homo sapiens, UniProt P25100); assay: Displacement of [3H]prazosin from human Alpha-1D adrenergic receptor expressed in CHO cells; type: cell-based
T1 sequence (P25100 whole entry): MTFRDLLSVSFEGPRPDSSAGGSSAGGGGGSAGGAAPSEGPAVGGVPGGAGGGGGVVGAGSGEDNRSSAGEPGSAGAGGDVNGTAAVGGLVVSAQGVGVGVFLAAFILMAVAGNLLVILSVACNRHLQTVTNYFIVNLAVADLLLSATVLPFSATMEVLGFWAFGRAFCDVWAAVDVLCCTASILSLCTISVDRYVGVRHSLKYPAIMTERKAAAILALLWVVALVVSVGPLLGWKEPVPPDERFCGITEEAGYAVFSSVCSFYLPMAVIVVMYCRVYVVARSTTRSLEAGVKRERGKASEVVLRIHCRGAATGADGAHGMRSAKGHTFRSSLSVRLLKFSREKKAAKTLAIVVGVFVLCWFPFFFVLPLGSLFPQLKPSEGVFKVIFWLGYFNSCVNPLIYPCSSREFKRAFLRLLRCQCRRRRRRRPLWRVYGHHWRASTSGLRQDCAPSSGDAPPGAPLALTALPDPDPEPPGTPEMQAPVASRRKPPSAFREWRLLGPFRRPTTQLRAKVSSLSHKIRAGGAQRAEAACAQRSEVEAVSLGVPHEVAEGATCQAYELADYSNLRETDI

[2] = molecular target: T2, 5-hydroxytryptamine receptor 1A (Homo sapiens, UniProt P08908); assay: Displacement of [3H]8-OH-DPAT from human 5-HT1A receptor expressed in human HeLa cells; type: cell-based
T2 sequence (P08908 whole entry): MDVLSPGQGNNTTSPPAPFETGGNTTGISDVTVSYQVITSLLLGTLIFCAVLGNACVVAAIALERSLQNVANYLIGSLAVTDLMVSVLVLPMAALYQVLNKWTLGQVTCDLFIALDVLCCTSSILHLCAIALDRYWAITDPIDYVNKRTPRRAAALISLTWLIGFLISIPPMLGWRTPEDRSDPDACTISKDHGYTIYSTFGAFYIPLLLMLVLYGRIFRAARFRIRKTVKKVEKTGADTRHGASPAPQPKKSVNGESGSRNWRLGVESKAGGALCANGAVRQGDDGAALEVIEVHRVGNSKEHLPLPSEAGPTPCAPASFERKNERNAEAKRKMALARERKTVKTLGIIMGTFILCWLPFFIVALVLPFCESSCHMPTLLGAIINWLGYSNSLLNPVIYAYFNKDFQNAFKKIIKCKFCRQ

[3] = system: Vas deferens; assay: Inhibition of noradrenaline-induced contraction in rat prostatic vas deferens; type: functional
[4] = system: Spleen; assay: Inhibition of noradrenaline-induced contraction in rat spleen; type: functional
[5] = system: Thoracic aorta; assay: Inhibition of noradrenaline-induced contraction in rat thoracic aorta; type: functional
[6] = species on record: Homo sapiens; assay: Selectivity ratio of pKi for human 5-HT1A receptor to pKi for human alpha1 adrenergic receptor
[7] = molecular target: T3, 5-hydroxytryptamine receptor 1A (Homo sapiens) (UniProt P08908); assay: Agonist activity at human recombinant 5HT1A receptor expressed in human HeLa cells by [35S]GTPgammaS binding assay relative to serotonin; type: functional, cell-based
T3 sequence (whole entry): T2 sequence (P08908 whole entry)

[8] = molecular target: T3, 5-hydroxytryptamine receptor 1A (Homo sapiens); assay: Agonist activity at human recombinant 5HT1A receptor expressed in human HeLa cells by [35S]GTPgammaS binding assay; type: functional, cell-based
[9] = molecular target: T4, Alpha-1A adrenergic receptor (Homo sapiens, UniProt P35348); assay: Displacement of [3H]prazosin from human alpha1A adrenergic receptor expressed in CHO cells; type: cell-based
T4 sequence (P35348 whole entry): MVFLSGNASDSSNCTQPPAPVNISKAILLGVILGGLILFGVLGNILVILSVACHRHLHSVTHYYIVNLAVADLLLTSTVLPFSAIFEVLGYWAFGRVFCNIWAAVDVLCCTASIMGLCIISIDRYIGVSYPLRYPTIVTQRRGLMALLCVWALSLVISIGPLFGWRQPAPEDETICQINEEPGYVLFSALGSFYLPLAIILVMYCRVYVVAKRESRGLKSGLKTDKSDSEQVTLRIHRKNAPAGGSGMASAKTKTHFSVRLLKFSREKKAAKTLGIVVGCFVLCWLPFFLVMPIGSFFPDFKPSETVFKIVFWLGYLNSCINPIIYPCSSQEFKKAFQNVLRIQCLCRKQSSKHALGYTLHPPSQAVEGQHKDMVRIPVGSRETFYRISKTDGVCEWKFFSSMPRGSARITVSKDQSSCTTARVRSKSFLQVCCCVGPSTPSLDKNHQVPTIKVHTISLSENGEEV

[10] = molecular target: T5, Alpha-1B adrenergic receptor (Homo sapiens, UniProt P35368); assay: Displacement of [3H]prazosin from human Alpha-1B adrenergic receptor expressed in CHO cells; type: cell-based
T5 sequence (P35368 whole entry): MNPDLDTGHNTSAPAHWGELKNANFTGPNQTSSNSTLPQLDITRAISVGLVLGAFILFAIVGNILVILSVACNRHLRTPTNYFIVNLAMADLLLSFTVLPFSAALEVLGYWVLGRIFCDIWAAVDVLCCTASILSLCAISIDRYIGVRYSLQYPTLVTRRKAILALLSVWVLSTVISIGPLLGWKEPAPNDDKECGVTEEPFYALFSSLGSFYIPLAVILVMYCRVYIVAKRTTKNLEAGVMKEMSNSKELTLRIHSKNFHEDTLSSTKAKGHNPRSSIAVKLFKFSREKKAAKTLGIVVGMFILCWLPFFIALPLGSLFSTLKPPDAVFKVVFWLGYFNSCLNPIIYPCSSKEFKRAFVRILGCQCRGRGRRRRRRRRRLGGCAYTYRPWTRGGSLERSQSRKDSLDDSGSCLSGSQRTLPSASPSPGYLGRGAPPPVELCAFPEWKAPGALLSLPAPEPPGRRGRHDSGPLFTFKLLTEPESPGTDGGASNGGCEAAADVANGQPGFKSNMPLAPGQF

Row | SMILES | Ki [1] [nM] | Ki [2] [nM] | pKb [3] | pKb [4] | pKb [5] | Ratio pKi [6] | Emax [7] [%] | pD2 [8] | Ki [9] [nM] | Ki [10] [nM]
1 | COc1cccc(OCCNCC2COC(c3ccccc3)(c3ccccc3)O2)c1 (racemic) | 57.5 | 2.63 | 5.75 | 5.79 | 6.61 | 22 | 14 | 5.97 | 91.2 | 58.9
2 | c1ccc(-c2ccc(OCCNCC3COC(c4ccccc4)(c4ccccc4)O3)cc2)cc1 (racemic) | > 1000 | > 1000 | 5.65 | 5.84 | 5.08 |  |  |  | > 1000 | > 1000
3 | c1ccc(-c2cccc(OCCNCC3COC(c4ccccc4)(c4ccccc4)O3)c2)cc1 (racemic) | > 1000 | 28.8 | 5.19 | 6.21 | <5 | > 35 |  |  | > 1000 | > 1000
4 | c1ccc(-c2ccccc2OCCNCC2COC(c3ccccc3)(c3ccccc3)O2)cc1 (racemic) | 331 | 2.19 | <5 | 5.47 | 6.1 | 151 | 73 | 7.82 | 490 | > 1000
5 | CC(C)Oc1ccccc1OCCNCC1COC(c2ccccc2)(c2ccccc2)O1 (racemic) | 6.31 | 1.7 | 7.25 | 7.25 | 7.59 | 1 | 25 | 9.08 | 2.09 | 20
6 | CCOc1ccccc1OCCNCC1COC(c2ccccc2)(c2ccccc2)O1 (racemic) | 6.76 | 0.891 | 7.23 | 6.92 | 7.91 | 7 | 36 | 9.08 | 6.61 | 53.7
7 | COc1cc(OC)cc(OCCNCC2COC(c3ccccc3)(c3ccccc3)O2)c1 (racemic) | > 1000 | > 1000 | 5.41 | 5.49 | 6.77 | 0.2 |  |  | 302 | 447
8 | COc1ccc(OCCNCC2COC(c3ccccc3)(c3ccccc3)O2)cc1OC (racemic) | > 1000 | 97.7 | 5.09 | 6.01 | 6.9 | 1.4 |  |  | > 1000 | 138
9 | COc1cccc(OCCNCC2COC(c3ccccc3)(c3ccccc3)O2)c1OC (racemic) | 355 | 7.59 | 5.86 | 5.85 | 6.64 | 11 |  |  | 85.1 | 174
10 | COc1ccccc1OCCNCC1COC(c2ccccc2)(c2ccccc2)O1 (racemic) |  | 0.603 | 7.53 | 7.36 | 8.65 | 15 | 32 | 7.36 | 19.5 | 46.8
11 | c1ccc(OCCNCC2COC(c3ccccc3)(c3ccccc3)O2)cc1 (racemic) |  | 3.55 | 6.16 | 5.86 | 8.37 | 3 | 24 | 8.8 |  | 
12 | COc1ccccc1OCCNCC1CSC(c2ccccc2)(c2ccccc2)O1 (racemic) | 6.61 | 1.02 | 6.71 | 8.44 | 8.68 | 6 | 76 | 8.94 | 20.9 | 100
13 | Cc1ccccc1OCCNCC1COC(c2ccccc2)(c2ccccc2)O1 (racemic) | 25.7 | 8.32 | 6.02 | 5.73 | 6.77 | 3 |  |  | 117 | 240
14 | COc1ccccc1OCCNCC1CSC(c2ccccc2)(c2ccccc2)S1 (racemic) | 20.4 | 0.129 | 5.8 | 5.87 | 7.5 | 158 | 20 | 7.76 | 35.5 | 117
15 | COc1cccc(OC)c1OCCNCC1COC(c2ccccc2)(c2ccccc2)O1 (racemic) | 182 | 53.7 | 5.73 | 5.89 | 6.93 | 14 |  |  | 100 | 75.9
16 | COc1ccc(OCCNCC2COC(c3ccccc3)(c3ccccc3)O2)cc1 (racemic) |  |  | <5 | 6.25 | 6.94 |  |  |  |  | 
17 | COc1ccccc1CCCNCC1COC(c2ccccc2)(c2ccccc2)O1 (racemic) | 50.1 | 7.94 | 5.92 | 5.97 | 6.86 | 6 | 14 | 5.92 | 49 | 41.7
18 | CCCN(CCC)C1CCc2cccc(O)c2C1 (stereo not drawn) [8-OH-DPAT] |  |  |  |  |  |  |  |  |  | > 1000
19 | COc1ccccc1N1CCN(CCN2C(=O)CC3(CCCC3)CC2=O)CC1 [BMY-7378] |  |  |  | 7.48 |  |  | 26 | 9.27 |  | 
